{"source": "patent US20240401031A1", "about": "“Platform Using iPSC-Derived Cardiomyocytes Carrying Gene Variants as Models of Cardiac Disease and Drug-Response” (SRI INTERNATIONAL, priority 2021, published 2024)", "origin": "cited, not measured here"}
{"settings": "source CredibleMeds"}
{"molecule": "CC[C@H]1OC(=O)[C@H](C)C(=O)[C@H](C)[C@@H](O[C@@H]2O[C@H](C)C[C@H](N(C)C)[C@H]2O)[C@](C)(OC)C[C@@H](C)C(=O)[C@H](C)[C@H]2N(CCCCn3cnc(-c4cccnc4)c3)C(=O)O[C@]12C", "note": "[Telithromycin]", "Risk (Torsade de Pointes)": "(PR)"}
{"molecule": "COc1ccc2c(c1)N(C[C@H](C)CN(C)C)c1ccccc1S2", "note": "[Levomepromazine]", "Risk (Torsade de Pointes)": "(KR)"}
{"molecule": "CCCCCOC(=O)Nc1nc(=O)n([C@@H]2O[C@H](C)[C@@H](O)[C@H]2O)cc1F", "note": "[Capecitabine]", "Risk (Torsade de Pointes)": "(PR)"}
{"molecule": "CCc1cc(/C(C)=N/OCc2ccc(C3CCCCC3)c(C(F)(F)F)c2)ccc1CN1CC(C(=O)O)C1", "note": "[Siponimod]", "Risk (Torsade de Pointes)": "(PR)"}
{"molecule": "Cc1nc2n(c(=O)c1CCN1CCC(c3noc4cc(F)ccc34)CC1)CCCC2O", "note": "(centres unmarked) [Paliperidone]", "Risk (Torsade de Pointes)": "(PR)"}
{"molecule": "COc1cc(N)c(Cl)cc1C(=O)NC1CCN(CCCOc2ccc(F)cc2)CC1OC", "note": "(centres unmarked) [Cisapride]", "Risk (Torsade de Pointes)": "(KR)"}
{"molecule": "C=C[C@H]1C[N@@]2CC[C@H]1C[C@@H]2[C@@H](O)c1ccnc2ccc(OC)cc12", "note": "[Quinidine]", "Risk (Torsade de Pointes)": "(KR)"}
{"molecule": "CC[C@H]1OC(=O)[C@H](C)[C@@H](O[C@H]2C[C@@](C)(OC)[C@@H](O)[C@H](C)O2)[C@H](C)[C@@H](O[C@@H]2O[C@H](C)C[C@H](N(C)C)[C@H]2O)[C@](C)(O)C[C@@H](C)CN(C)[C@H](C)[C@@H](O)[C@]1(C)O", "note": "[Azithromycin]", "Risk (Torsade de Pointes)": "(KR)"}
{"molecule": "CCc1ccc(C(=O)C(C)CN2CCCCC2)cc1", "note": "(centres unmarked) [Eperisone]", "Risk (Torsade de Pointes)": "(CR)"}
{"molecule": "CCCCc1oc2ccccc2c1C(=O)c1cc(I)c(OCCN(CC)CC)c(I)c1", "note": "[Amiodarone]", "Risk (Torsade de Pointes)": "(KR)"}
{"molecule": "CCCCCCCN(CC)CCCC(O)c1ccc(NS(C)(=O)=O)cc1", "note": "(centres unmarked) [Ibutilide]", "Risk (Torsade de Pointes)": "(KR)"}
{"molecule": "COC(=O)C1=C(C)NC(C)=C(C(=O)OC(C)C)C1c1cccc2nonc12", "note": "(centres unmarked) [Isradipine]", "Risk (Torsade de Pointes)": "(PR)"}
{"molecule": "Cc1c(OCC(F)(F)F)ccnc1C[S+]([O-])c1nc2ccccc2[nH]1", "note": "(centres unmarked) [Lansoprazole]", "Risk (Torsade de Pointes)": "(CR)"}
{"molecule": "CCN1CCCC1CNC(=O)c1cc(S(=O)(=O)CC)c(N)cc1OC", "note": "(centres unmarked) [Amisulpride]", "Risk (Torsade de Pointes)": "(CR)"}
{"molecule": "CN1[C@@H]2CC[C@H]1C[C@@H](OC(=O)c1c[nH]c3ccccc13)C2", "note": "[Tropisetron]", "Risk (Torsade de Pointes)": "(PR)"}
{"molecule": "O=C(O)c1cn(C2CC2)c2cc(N3CCNCC3)c(F)cc2c1=O", "note": "[Ciprofloxacin]", "Risk (Torsade de Pointes)": "(KR)"}
{"molecule": "CNCCC(Oc1ccc(C(F)(F)F)cc1)c1ccccc1", "note": "(centres unmarked) [Fluoxetine]", "Risk (Torsade de Pointes)": "(CR)"}
{"molecule": "CN(C)CCC=C1c2ccccc2CCc2ccccc21", "note": "[Amitriptyline]", "Risk (Torsade de Pointes)": "(CR)"}
{"molecule": "O=c1[nH]c2ccccc2n1C1CCN(CCCC(c2ccc(F)cc2)c2ccc(F)cc2)CC1", "note": "[Pimozide]", "Risk (Torsade de Pointes)": "(KR)"}
{"molecule": "Nc1nc(CC(=O)Nc2ccc(CCNC[C@H](O)c3ccccc3)cc2)cs1", "note": "[Mirabegron]", "Risk (Torsade de Pointes)": "(PR)"}
{"molecule": "COC(=O)CC[C@@H]1N=C(c2ccccn2)c2cc(Br)ccc2-n2c(C)cnc21", "note": "[Remimazolam]", "Risk (Torsade de Pointes)": "(PR)"}
{"molecule": "CC[C@@H](C(N)=O)N1CCCC1=O", "note": "[Levetiracetam]", "Risk (Torsade de Pointes)": "(PR)"}
{"molecule": "CC(C)/N=c1\\cc2n(-c3ccc(Cl)cc3)c3ccccc3nc-2cc1Nc1ccc(Cl)cc1", "note": "[Clofazimine]", "Risk (Torsade de Pointes)": "(PR)"}
{"molecule": "Cc1cccc(Nc2ccncc2S(=O)(=O)NC(=O)NC(C)C)c1", "note": "[Torsemide]", "Risk (Torsade de Pointes)": "(CR)"}
{"molecule": "C[C@@H](Cc1ccccc1)N(C)Cc1ccccc1", "note": "[Benzphetamine]", "Risk (Torsade de Pointes)": "(SR)"}
{"molecule": "COc1ccsc1CNCC[C@@]1(c2ccccn2)CCOC2(CCCC2)C1", "note": "[Oliceridine]", "Risk (Torsade de Pointes)": "(PR)"}
{"molecule": "NS(=O)(=O)c1cc(C(=O)O)c(NCc2ccco2)cc1Cl", "note": "[Furosemide]", "Risk (Torsade de Pointes)": "(CR)"}
{"molecule": "OCCOCCN1CCN(C2=Nc3ccccc3Sc3ccccc32)CC1", "note": "[Quetiapine]", "Risk (Torsade de Pointes)": "(CR)"}
{"molecule": "COc1ccc2nc([S@@+]([O-])Cc3ncc(C)c(OC)c3C)[nH]c2c1", "note": "[Esomeprazole]", "Risk (Torsade de Pointes)": "(CR)"}
{"molecule": "CNCCC=C1c2ccccc2CCc2ccccc21", "note": "[Nortriptyline]", "Risk (Torsade de Pointes)": "(PR)"}
{"molecule": "CC(CC(c1ccccc1)c1ccccc1)NC(C)(C)C", "note": "(centres unmarked) [Terodiline]", "Risk (Torsade de Pointes)": "(KR)"}
{"molecule": "COC(=O)N[C@H](C(=O)N[C@@H](Cc1ccccc1)[C@@H](O)CN(Cc1ccc(-c2ccccn2)cc1)NC(=O)[C@@H](NC(=O)OC)C(C)(C)C)C(C)(C)C", "note": "[Atazanavir]", "Risk (Torsade de Pointes)": "(CR)"}
{"molecule": "Clc1ccc(CCCOCCCN2CCCCC2)cc1", "note": "[Pitolisant]", "Risk (Torsade de Pointes)": "(PR)"}
{"molecule": "COc1c(N2CCNC(C)C2)c(F)cc2c(=O)c(C(=O)O)cn(C3CC3)c12", "note": "(centres unmarked) [Gatifloxacin]", "Risk (Torsade de Pointes)": "(KR)"}
{"molecule": "CC(CN(C)C)CN1c2ccccc2CCc2ccccc21", "note": "(centres unmarked) [Trimipramine]", "Risk (Torsade de Pointes)": "(PR)"}
{"molecule": "CCCCCCCC(=O)N[C@H](CN1CCCC1)[C@H](O)c1ccc2c(c1)OCCO2", "note": "[Eliglustat]", "Risk (Torsade de Pointes)": "(PR)"}
{"molecule": "O=[N+]([O-])c1cn2c(n1)OC[C@@H](OCc1ccc(OC(F)(F)F)cc1)C2", "note": "[Pretomanid]", "Risk (Torsade de Pointes)": "(PR)"}
{"molecule": "Cc1cc(/C=C/C#N)cc(C)c1Nc1ccnc(Nc2ccc(C#N)cc2)n1", "note": "[Rilpivirine]", "Risk (Torsade de Pointes)": "(PR)"}
{"molecule": "CN(C)C(=O)c1cc2cnc(Nc3ccc(N4CCNCC4)cn3)nc2n1C1CCCC1", "note": "[Ribociclib]", "Risk (Torsade de Pointes)": "(PR)"}
{"molecule": "COc1cc2c(cc1OC)C1CC(=O)C(CC(C)C)CN1CC2", "note": "(centres unmarked) [Tetrabenazine]", "Risk (Torsade de Pointes)": "(PR)"}
{"molecule": "CCN(c1cc(-c2ccc(CN3CCOCC3)cc2)cc(C(=O)NCc2c(C)cc(C)[nH]c2=O)c1C)C1CCOCC1", "note": "[Tazemetostat]", "Risk (Torsade de Pointes)": "(PR)"}
{"molecule": "O=C1c2cccc3c2[C@H](CCC3)CN1[C@@H]1CN2CCC1CC2", "note": "[Palonosetron]", "Risk (Torsade de Pointes)": "(PR)"}
{"molecule": "COc1ccnc(C[S+]([O-])c2nc3ccc(OC(F)F)cc3[nH]2)c1OC", "note": "(centres unmarked) [Pantoprazole]", "Risk (Torsade de Pointes)": "(CR)"}
{"molecule": "CN[C@@H](C)Cc1ccccc1", "note": "[Methamphetamine]", "Risk (Torsade de Pointes)": "(SR)"}
{"molecule": "CCCCc1oc2ccc(NS(C)(=O)=O)cc2c1C(=O)c1ccc(OCCCN(CCCC)CCCC)cc1", "note": "[Dronedarone]", "Risk (Torsade de Pointes)": "(KR)"}
{"molecule": "C[C@@H](Cc1ccccc1)NC(=O)[C@@H](N)CCCCN", "note": "[Lisdexamfetamine]", "Risk (Torsade de Pointes)": "(SR)"}
{"molecule": "NCCc1ccc(O)c(O)c1", "note": "[Dopamine]", "Risk (Torsade de Pointes)": "(SR)"}
{"molecule": "O=C1CCc2ccc(OCCCCN3CCN(c4cccc(Cl)c4Cl)CC3)cc2N1", "note": "[Aripiprazole]", "Risk (Torsade de Pointes)": "(PR)"}
{"molecule": "OCc1cc(C(O)CNCCCCCCOCCCCc2ccccc2)ccc1O", "note": "(centres unmarked) [Salmeterol]", "Risk (Torsade de Pointes)": "(SR)"}
{"molecule": "CS(=O)(=O)CCNCc1ccc(-c2ccc3ncnc(Nc4ccc(OCc5cccc(F)c5)c(Cl)c4)c3c2)o1", "note": "[Lapatinib]", "Risk (Torsade de Pointes)": "(PR)"}
{"molecule": "CCn1cc(C(=O)O)c(=O)c2cc(F)c(N3CCNCC3)cc21", "note": "[Norfloxacin]", "Risk (Torsade de Pointes)": "(PR)"}
{"molecule": "O=c1n(CCCN2CCN(c3cccc(Cl)c3)CC2)nc2ccccn12", "note": "[Trazodone]", "Risk (Torsade de Pointes)": "(CR)"}
{"molecule": "N[C@H](C(=O)O)[C@H](O)c1ccc(O)c(O)c1", "note": "[Droxidopa]", "Risk (Torsade de Pointes)": "(SR)"}
